What was measured:
Settings in all cases: 72 h
Caco-2 [1] = assay: cell viability relative to DMSO; higher = less toxic
Calu-3 [2] = assay: as above
U2OS [3] = assay: as above
Vero E6 [4] = assay: as above
Caco-2 [5] = assay: relative viability EC50 (midpoint between 100% and the lowest measured viability); higher = less toxic
Calu-3 [6] = assay: as above
U2OS [7] = assay: as above
Vero E6 [8] = assay: as above
Caco-2 [9] = assay: drug sensitivity score (DSS) for viability; higher = more toxic; extreme values may be limits of the assay
Calu-3 [10] = assay: as above
U2OS [11] = assay: as above
Vero E6 [12] = assay: as above
HepG2 [13] = assay: cell viability relative to DMSO; higher = less toxic
HepG2 [14] = assay: drug sensitivity score (DSS) for viability; higher = more toxic; extreme values may be limits of the assay
HepG2 [15] = assay: relative viability EC50 (midpoint between 100% and the lowest measured viability); higher = less toxic

Row | SMILES | cell viability (Caco-2 [1]; 1 nM) | cell viability (Caco-2 [1]; 10 nM) | cell viability (Caco-2 [1]; 100 nM) | cell viability (Caco-2 [1]; 1000 nM) | cell viability (Caco-2 [1]; 10000 nM) | cell viability (Calu-3 [2]; 1 nM) | cell viability (Calu-3 [2]; 10 nM) | cell viability (Calu-3 [2]; 100 nM) | cell viability (Calu-3 [2]; 1000 nM) | cell viability (Calu-3 [2]; 10000 nM) | cell viability (U2OS [3]; 1 nM) | cell viability (U2OS [3]; 10 nM) | cell viability (U2OS [3]; 100 nM) | cell viability (U2OS [3]; 1000 nM) | cell viability (U2OS [3]; 10000 nM) | cell viability (Vero E6 [4]; 1 nM) | cell viability (Vero E6 [4]; 10 nM) | cell viability (Vero E6 [4]; 100 nM) | cell viability (Vero E6 [4]; 1000 nM) | cell viability (Vero E6 [4]; 10000 nM) | relative viability EC50 (Caco-2 [5]) | relative viability EC50 (Calu-3 [6]) | relative viability EC50 (U2OS [7]) | relative viability EC50 (Vero E6 [8]) | drug sensitivity score (Caco-2 [9]) | drug sensitivity score (Calu-3 [10]) | drug sensitivity score (U2OS [11]) | drug sensitivity score (Vero E6 [12]) | cell viability (HepG2 [13]; 1 nM) | cell viability (HepG2 [13]; 10 nM) | cell viability (HepG2 [13]; 100 nM) | cell viability (HepG2 [13]; 1000 nM) | cell viability (HepG2 [13]; 10000 nM) | drug sensitivity score (HepG2 [14]) | relative viability EC50 (HepG2 [15])
1 | COc1ccc2[nH]c([S@@+]([O-])Cc3ncc(C)c(OC)c3C)nc2c1 [esomeprazole] | 97.2% | 101% | 101% | 102% | 83.1% | 98.3% | 108% | 110% | 96.9% | 103% | 102% | 102% | 95% | 102% | 95.8% | 93.8% | 108% | 100% | 97.8% | 107% | > 10 µM | > 10 µM | > 10 µM | > 10 µM | 0.3 | 0 | 0 | 0 |  |  |  |  |  |  | 
2 | CCC1(C)CC(=O)NC1=O (configuration not stated) [ethosuximide] | 87% | 77.2% | 88.5% | 84.8% | 84.6% | 110% | 93.6% | 89.8% | 107% | 94% | 102% | 93.4% | 102% | 99.6% | 100% | 99.2% | 106% | 101% | 103% | 96.6% | > 10 µM | > 10 µM | > 10 µM | > 10 µM | 0 | 0 | 0 | 0 |  |  |  |  |  |  | 
3 | CN1CCN(c2c(F)cc3c(=O)c(C(=O)O)cn(CCF)c3c2F)CC1 [fleroxacin] | 102% | 97.2% | 100% | 96.8% | 107% | 88% | 106% | 102% | 108% | 107% | 96.5% | 93.6% | 104% | 97.1% | 102% | 102% | 105% | 97.6% | 101% | 98.1% | > 10 µM | > 10 µM | > 10 µM | > 10 µM | 0 | 0 | 0 | 0 |  |  |  |  |  |  | 
4 | N=C(N)c1ccc(/C=C/c2ccc(C(=N)N)cc2O)cc1 [hydroxystilbamidine] | 97.7% | 99.2% | 103% | 104% | 93.7% | 110% | 107% | 101% | 102% | 97.3% | 98% | 95.6% | 96.2% | 98.6% | 106% | 96.7% | 100% | 101% | 97.5% | 89.4% | > 10 µM | > 10 µM | > 10 µM | > 10 µM | 0 | 0 | 0 | 0 | 108% | 96.6% | 93.1% | 95.5% | 56.2% | 3 | 
5 | C#Cc1cccc(Nc2ncnc3cc4c(cc23)OCCOCCOCCO4)c1 [icotinib] | 104% | 100% | 98.5% | 87.4% | 90.7% | 93.8% | 104% | 90.2% | 66.1% | 50.8% | 96.4% | 95.6% | 98.1% | 93.7% | 96.6% | 91.5% | 100% | 92% | 81.8% | 66.9% | > 10 µM |  | > 10 µM |  | 0.8 | 7.2 | 0 | 3.5 | 86.4% | 103% | 87.7% | 102% | 99.4% | 0 | > 10 µM
6 | CS(=O)(=O)CCNCc1ccc(-c2ccc3ncnc(Nc4ccc(OCc5cccc(F)c5)c(Cl)c4)c3c2)o1 [lapatinib] | 100% | 93.7% | 90.1% | 77.3% | 62.8% | 102% | 89.6% | 74.2% | 35.8% | 24.5% | 98.4% | 93.6% | 94% | 92.3% | 74.9% | 96.9% | 100% | 92.4% | 74.6% | 51.5% |  | 0.176 µM |  |  | 4.8 | 15.1 | 1.4 | 5.5 | 98% | 107% | 104% | 112% | 89.1% | 0 | > 10 µM
7 | CC(=O)CC(=O)O [lithium-acetoacetate] | 94% | 104% | 101% | 109% | 99.3% | 98.2% | 101% | 98.9% | 99% | 100% | 98.6% | 101% | 98.1% | 102% | 96.8% | 103% | 104% | 103% | 97.7% | 105% | > 10 µM | > 10 µM | > 10 µM | > 10 µM | 0 | 0 | 0 | 0 |  |  |  |  |  |  | 
8 | CC(C)(C)NCC(O)c1cc(Cl)c(N)c(C(F)(F)F)c1 (configuration not stated) [mabuterol] | 87.6% | 110% | 99.1% | 112% | 85.7% | 102% | 97% | 99.6% | 92.8% | 98.2% | 97.2% | 93.6% | 98.8% | 97.7% | 93.3% | 89.1% | 92% | 92.4% | 91.6% | 104% | > 10 µM | > 10 µM | > 10 µM | > 10 µM | 0.1 | 0 | 0 | 0 |  |  |  |  |  |  | 
9 | Cc1ccc(Cl)c(Nc2ccccc2C(=O)O)c1Cl [meclofenamic-acid] | 97.6% | 103% | 95.8% | 102% | 91.2% | 98.2% | 101% | 88.1% | 109% | 91.8% | 99.3% | 103% | 97.1% | 105% | 96.2% | 105% | 93.7% | 102% | 101% | 96.5% | > 10 µM | > 10 µM | > 10 µM | > 10 µM | 0 | 0 | 0 | 0 |  |  |  |  |  |  | 
10 | COc1ccccc1OC(=O)C(C)c1ccc(CC(C)C)cc1 (configuration not stated) [metoxibutropate] | 95.5% | 104% | 90.2% | 93.1% | 96.7% | 118% | 105% | 104% | 97.7% | 107% | 101% | 103% | 97.8% | 99.3% | 100% | 99.2% | 102% | 96.9% | 98.7% | 100% | > 10 µM | > 10 µM | > 10 µM | > 10 µM | 0 | 0 | 0 | 0 |  |  |  |  |  |  | 
11 | CC1(C)NC(=O)N(c2ccc([N+](=O)[O-])c(C(F)(F)F)c2)C1=O [nilutamide] | 102% | 107% | 117% | 107% | 90.5% | 106% | 100% | 94.7% | 104% | 92.7% | 96% | 104% | 98.2% | 94.8% | 103% | 106% | 97.1% | 104% | 94.8% | 96.8% | > 10 µM | > 10 µM | > 10 µM | > 10 µM | 0 | 0 | 0 | 0 |  |  |  |  |  |  | 
12 | C=CC(=O)N1CCC(Oc2cc3c(Nc4ccc(Cl)c(Cl)c4F)ncnc3cc2OC)CC1 [poziotinib] | 88.4% | 86.5% | 80.9% | 85.2% | 60.1% | 67.5% | 31.5% | 30% | 27.4% | 18.5% | 95.1% | 94.4% | 91.1% | 88% | 19.3% | 86.4% | 60.5% | 58.3% | 45.6% | 8.8% |  | 0.0016 µM | 2 µM | 0.0784 µM | 6.4 | 34.8 | 6.5 | 21.1 | 105% | 97.3% | 101% | 93.9% | 63.3% | 2.8 | 
13 | C=Cc1cc(O)cc2nc(-c3ccc(O)c(F)c3)oc12 [prinaberel] | 95.5% | 99.7% | 88.7% | 90% | 91.9% | 96.8% | 104% | 95.3% | 95.9% | 93.4% | 100% | 101% | 94.6% | 98.6% | 96.9% | 103% | 99.9% | 98% | 100% | 95.5% | > 10 µM | > 10 µM | > 10 µM | > 10 µM | 0.7 | 0 | 0 | 0 | 102% | 104% | 93.4% | 103% | 74.6% | 0.8 | 
14 | Cn1c([N+](=O)[O-])cnc1COC(N)=O [ronidazole] | 89.2% | 93.5% | 107% | 95.2% | 101% | 95.6% | 98.6% | 95.3% | 92% | 103% | 96.4% | 97.9% | 99.8% | 97.9% | 99.5% | 98% | 103% | 93.7% | 98.7% | 108% | > 10 µM | > 10 µM | > 10 µM | > 10 µM | 0 | 0 | 0 | 0 |  |  |  |  |  |  | 
15 | CN(C(=O)c1c(O)c2ccccc2n(C)c1=O)c1ccccc1 [roquinimex] | 88.7% | 95.5% | 82.2% | 92.5% | 99.5% | 85.8% | 96.1% | 96% | 95.4% | 108% | 96.5% | 101% | 94.1% | 93.8% | 101% | 103% | 93.6% | 98.2% | 97.1% | 105% | > 10 µM | > 10 µM | > 10 µM | > 10 µM | 0 | 0 | 0 | 0 |  |  |  |  |  |  | 
16 | NC(=S)N/N=C/c1ncccc1N [triapine] | 97.2% | 98.7% | 95.3% | 92.1% | 68.6% | 106% | 94.1% | 101% | 101% | 70.5% | 96.8% | 99.6% | 95.8% | 102% | 72.8% | 97% | 98.3% | 98.1% | 92.3% | 50.3% |  |  |  |  | 2.4 | 1.2 | 1 | 3.9 | 103% | 97.7% | 119% | 93% | 30.6% | 5 | 2.34 µM
